Measurements reported in the supplement of paper PMC10307832.

Experiments:
Assay in all cases: relative viability (nuclei count vs DMSO), 5 days (fraction); higher = more cells survive
RU-SKI 43 + Lapatinib = compound: CC[C@@H](C)CNCC(=O)N1CCC2=C([C@@H]1COC3=CC=CC(=C3)C)C=CS2 [RU-SKI 43] + CS(=O)(=O)CCNCc1ccc(-c2ccc3ncnc(Nc4ccc(OCc5cccc(F)c5)c(Cl)c4)c3c2)o1 [Lapatinib] (partner 2 µM)
In short: (§1)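 Relative viability equals treated-well nuclei counts divided by vehicle-well nuclei counts. Counts came from 4× images of lung cancer cell lines grown in 1536-well plates for 5 days after pin-tool dosing on the day after seeding. Dosing used one drug alone or a fixed anchor-drug dose plus five library-drug doses (not always all listed) in √10 steps, and values are medians of duplicate plates.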

MK-8033 + Pictilisib = compound: Cn1cc(-c2cnc3ccc4ccc(CS(=O)(=O)NCc5ccccn5)cc4c(=O)c3c2)cn1 [MK-8033] + CS(=O)(=O)N1CCN(Cc2cc3nc(-c4cccc5[nH]ncc45)nc(N4CCOCC4)c3s2)CC1 [Pictilisib] (partner 1 µM)
In short: as §1

RU-SKI 43 + Luminespib = compound: CC[C@@H](C)CNCC(=O)N1CCC2=C([C@@H]1COC3=CC=CC(=C3)C)C=CS2 [RU-SKI 43] + CCNC(=O)c1noc(-c2cc(C(C)C)c(O)cc2O)c1-c1ccc(CN2CCOCC2)cc1 [Luminespib] (partner 0.01 µM)
In short: as §1

RU-SKI 43 + AZD7762 = compound: CC[C@@H](C)CNCC(=O)N1CCC2=C([C@@H]1COC3=CC=CC(=C3)C)C=CS2 [RU-SKI 43] + NC(=O)Nc1cc(-c2cccc(F)c2)sc1C(=O)N[C@H]1CCCNC1 [AZD7762] (partner 0.2 µM)
In short: as §1

Cell Line	relative viability (RU-SKI 43 + Lapatinib; first compound 0.1 µM)	relative viability (RU-SKI 43 + Lapatinib; first compound 0.3162 µM)	relative viability (RU-SKI 43 + Lapatinib; first compound 1 µM)	relative viability (RU-SKI 43 + Lapatinib; first compound 3.162 µM)	relative viability (RU-SKI 43 + Lapatinib; first compound 10 µM)	relative viability (MK-8033 + Pictilisib; first compound 0.02 µM)	relative viability (MK-8033 + Pictilisib; first compound 0.06325 µM)	relative viability (MK-8033 + Pictilisib; first compound 0.2 µM)	relative viability (MK-8033 + Pictilisib; first compound 0.6325 µM)	relative viability (MK-8033 + Pictilisib; first compound 2 µM)	relative viability (RU-SKI 43 + Luminespib; first compound 0.1 µM)	relative viability (RU-SKI 43 + Luminespib; first compound 0.3162 µM)	relative viability (RU-SKI 43 + Luminespib; first compound 1 µM)	relative viability (RU-SKI 43 + Luminespib; first compound 3.162 µM)	relative viability (RU-SKI 43 + Luminespib; first compound 10 µM)	relative viability (RU-SKI 43 + AZD7762; first compound 0.1 µM)	relative viability (RU-SKI 43 + AZD7762; first compound 0.3162 µM)	relative viability (RU-SKI 43 + AZD7762; first compound 1 µM)	relative viability (RU-SKI 43 + AZD7762; first compound 3.162 µM)	relative viability (RU-SKI 43 + AZD7762; first compound 10 µM)
NCI-H1792	0.937	1.14	1.42	0.88	0.973	0.256	0.188	0.346	0.269	0.212	0.462	0.568	0.447	0.492	0.456	0.623	0.753	0.656	0.712	0.686
HCC-827	0.189	0.197	0.211	0.213	0.162	1.05	0.605	0.902	1.06	1.04	0.77	0.795	0.588	0.612	0.679	0.188	0.155	0.206	0.223	0.197
LXF-289	0.906	0.88	0.979	0.989	0.878	0.789	0.64	0.721	0.734	0.823	0.729	0.853	0.852	0.751	0.568	1.13	1.11	1.14	1.09	1.03
NCI-H460	0.993	1.33	1.55	1.25	1.01	0.432	0.285	0.395	0.253	0.402	0.035	0.0298	0.0295	0.0325	0.0355	0.533	0.756	0.787	0.519	0.638
PC-14	0.362	0.362	0.414	0.335	0.239	0.652	0.514	0.738	0.545	0.623	0.146	0.143	0.126	0.157	0.159	0.392	0.377	0.441	0.32	0.379
NCI-H1734	1.08	1.08	1.1	1.08	0.998	0.48	0.37	0.466	0.469	0.45	0.177	0.17	0.223	0.192	0.168	0.588	0.604	0.573	0.61	0.579
NCI-H727	0.797	0.905	0.84	0.839	0.927	0.52	0.451	0.354	0.5	0.273	0.365	0.393	0.26	0.362	0.664	–	0.707	0.724	0.638	0.543
HOP-62	0.973	1.28	0.883	1.03	0.877	0.626	0.593	0.587	0.694	0.646	1	1.29	1.07	0.984	1.04	0.463	0.643	0.71	0.704	0.529
NCI-H2405	1.01	0.964	1.03	1.04	0.956	0.502	0.445	0.404	0.434	0.593	0.639	0.474	0.543	0.736	0.486	0.801	0.83	0.876	0.84	0.452
A-427	1.01	1.22	1.1	–	1	0.676	0.7	0.677	0.734	0.644	0.851	1.2	1	0.668	0.789	0.726	0.761	0.765	0.851	0.674
LCLC-97TM1	1.08	–	1.02	1.04	0.781	0.187	0.148	0.199	0.215	0.19	0.902	0.927	0.876	0.898	0.85	0.373	0.184	0.255	0.303	0.239
NCI-H3122	1.06	1.03	1.03	1.09	0.979	0.676	0.563	0.602	0.66	0.628	0.0907	0.0845	0.103	0.0966	0.0897	0.957	1.27	1.01	1.15	0.95
RERF-LC-KJ	0.872	0.892	0.853	0.959	0.825	0.508	0.417	0.519	0.501	0.533	1.25	1.01	1.44	1.3	1	0.97	1.01	1.21	1.17	1.04
NCI-H2170	0.259	0.241	0.292	0.273	0.256	0.382	0.291	0.293	0.32	0.302	0.751	0.73	0.73	0.755	0.67	0.846	1.07	0.959	0.866	0.882
ABC-1	1.23	1.42	1.12	1.18	1.24	0.969	0.564	0.689	0.674	0.699	0.68	0.434	0.485	0.673	0.811	0.894	0.867	1.2	0.727	0.957
HCC-44	1.12	1.02	1.15	1.04	0.995	0.623	0.409	0.542	0.69	0.738	1.02	–	1.16	1.02	0.894	0.995	1.04	1.08	1.06	1.01
